Three compounds from patent US9456973B2, “Methionyl-methionine stereoisomers and use thereof in cosmetics” (EVONIK DEGUSSA GMBH, priority 2013, dated 2016) can be followed below.

Molecules are shown by their SMILES.

Common to all, as to parameters: species or system human
Assay [1] is described as follows: Repair of alkaline smoothed hair: tensile elongation forces by Tensile Tester. To be noted: simple hair conditioner (Table 8); 0.5% DD/LL 1:1, 0.5% L-methionine or 2.0% wheat protein (25% active); vehicle 0.43 mN; FIG. 9. Here is the method: (§1) Afterwards, per treatment method 40 hairs were removed from the tress section and in each case the middle section of a hair with a length of 3 cm was crimped between two brass sleeves with plastic coating on the inside. The average area of each individual hair was measured using a Dia-stron FDAS760 fibre dimensional system and UvWin PC application software. The hair samples were then transferred to the sample cassette of a Dia-stron Tensile Tester MTT 670 and admixed in each case with demineralized water adjusted to pH 7 using citric acid. A measurement of the individual hair strands with the Single Fiber Method (Extension 20%, Rate 20 mm/min, Gauge Force 2, Maximum Force 200, Break Threshold 5, Sample Size 30 mm) was started. The hair samples were then removed from the sample cassette and covered with demineralized water in a plastic bowl.
(§2) For the treatment with hair conditioner, the water was removed after 30 minutes and the hair samples were covered with hair conditioner. After a contact time of 30 minutes, each individual hair sample was washed under a stream of running water at ca. 35° C. for 6 seconds. The hair samples were dried overnight at 22° C. and 50% relative atmospheric humidity. […]
(§3) Afterwards, 40 hairs were removed from the tress section and measured as described in Example 1. […]

The nature of assay [2]: Repair of bleached hair: tensile elongation forces by Dia-stron Tensile Tester MTT 670. Here is the method:
A tress section of human Euro-Natural hair, remis, double-drawn with a length of 23 cm and a width of 2.0 cm with a weight of 2.0 g and dark-brown color was wetted under a tap of running water over the course of 10 seconds. 8 g of a 30% strength aqueous hydrogen peroxide solution were mixed with 4 g of Basler Blond Claire bleaching powder, 2 mL of a 25% strength aqueous ammonia solution were added, and combined again and 8 g of the resulting paste were massaged into the tress section with the help of a comb and the protected hands. After a contact time of 30 minutes at room temperature, the tress section was washed for 2 minutes under running tap water at ca. 35° C. and then dried by means of an electronic hair dryer for 3 minutes while combing at the same time. The entire procedure was repeated once starting from the wetting of the tress section.
as §1
For the treatment with hair conditioner, the water was removed after 30 minutes and the hair samples were covered with hair conditioner. After a contact time of 30 minutes, each individual hair sample was washed under a stream of running water at ca. 35° C. for 6 seconds. The hair samples were dried overnight at 22° C. and 50% relative atmospheric humidity.
For the treatment with shampoo, the water was removed after 30 minutes and the hair samples were covered with shampoo. After a contact time of 5 minutes, each individual hair sample was washed under a stream of running water at ca. 35° C. for 6 seconds. The hair samples were briefly dried by means of an electronic hair dryer and the shampoo treatment was repeated four times.
After the particular treatment, the measurement of the individual hair samples starting with the transfer to the sample cassette of the Dia-stron Tensile Tester MTT 670 was repeated.
The evaluation of the data takes place by reference to the parameters modulus of elasticity (E modulus), Load and/or Work. If a hair is pulled, the elongation is initially proportional to the applied force (Hooke's range). The modulus of elasticity describes the applied force per elongation (in Newton/mm^2) in the Hooke's range and therefore represents the tensile strength of a hair fibre. As soon as the hair has been elongated to a length of approximately 2%, it further deforms very rapidly up to ca. 25-30% of its original length, where the increase in the force required for this is minimal (Yield range). The parameter Load corresponds to the force (in Newtons) which is required to elongate the hair up to 15% and the parameter Work indicates the work required to elongate the hair from 0-15% (in Joules).

A short description of assay [3]: Hair fatigue breakage of bleached hair, Dia-stron Automatic Cyclic Tester (CYC800), Weibull analysis. To be noted: simple hair conditioner (Table 3), 2.0%; Constant Stress method; vehicle 14 190 cycles; FIG. 8. As to the method:
A tress section of human Euro-Natural hair, remis, double-drawn with a length of 23 cm and a width of 2.0 cm with a weight of 2.0 g and dark-brown color was wetted under a tap of running water over the course of 10 seconds. 8 g of a 30% strength aqueous hydrogen peroxide solution were mixed with 4 g of Basler Blond Claire bleaching powder, 2 mL of a 25% strength aqueous ammonia solution were added, and combined again and 8 g of the resulting paste were massaged into the tress section with the help of a comb and the protected hands. […]
Afterwards, per treatment method 40 hairs were removed from the tress section and in each case the middle section of a hair with a length of 3 cm was crimped between two brass sleeves with plastic coating on the inside. The average area of each individual hair was measured using a Dia-stron FDAS760 fibre dimensional system and UvWin PC application software. […]
In order to measure the hair fatigue breakage, the hair samples were transferred to the sample cassette of a Dia-stron Automatic Cyclic Tester (CYC800) and climatized at 22° C. and 50-55% rel. atmospheric humidity. […] The characteristic life span a of a hair fibre is calculated by means of Weibull analysis. […]

Assay [4] in a line: Protection of hair against thermal stress (smoothing iron): hair fatigue breakage, Automatic Cyclic Tester. The conditions noted are these: FIG. 11. As to the method: A tress section of human Euro-Natural hair, remis, double-drawn with a length of 23 cm and a width of 2.0 cm with a weight of 2.0 g and dark-brown color was wetted under a tap of running water over the course of 10 seconds. Then, 2 mL of shampoo (28.6% Texapon NSO in dist. water) were massaged into the hair for 30 seconds, washed out for a further 30 seconds under running tap water at ca. 35° C., and the hair tress was squeezed between two fingers and combed six times. The hair tress was dipped for 1 minute in 300 mL of active ingredient solution (active ingredient, demin. water, lactic acid, pH 5.5), squeezed between two fingers and rinsed for 30 seconds under running tap water at ca. 35° C. and combed. […]
Afterwards, 50 hairs were removed from the tress section and in each case the middle section of a hair with a length of 3 cm was crimped between two brass sleeves with plastic coating on the inside. The average area of each individual hair was measured using a Dia-stron FDAS760 fibre dimensional system and UvWin PC application software.
The hair samples were then transferred to the sample cassette of a Dia-stron Automatic Cyclic Tester (CYC800) and climatized at 22° C. and 50-55% rel. atmospheric humidity. […] The probability of survival and the characteristic life span a of a hair fibre were calculated by means of Weibull analysis.

A short description of assay [5]: Protection of hair against thermal stress (smoothing iron): denaturation temperature by differential scanning calorimetry. The conditions noted are these: preventative treatment with active ingredient solution pH 5.5; vehicle 137.9° C.; FIG. 12. As to the method:
A tress section of human Euro-Natural hair, remis, double-drawn with a length of 23 cm and a width of 2.0 cm with a weight of 2.0 g and dark-brown color was wetted under a tap of running water over the course of 10 seconds. Then, 2 mL of shampoo (28.6% Texapon NSO in dist. water) were massaged into the hair for 30 seconds, washed out for a further 30 seconds under running tap water at ca. 35° C., and the hair tress was squeezed between two fingers and combed six times. The hair tress was dipped for 1 minute in 300 mL of active ingredient solution (active ingredient, demin. water, lactic acid, pH 5.5), squeezed between two fingers and rinsed for 30 seconds under running tap water at ca. 35° C. and combed. The hair was dried using an electronic hair dryer for 3 minutes with simultaneous combing and then stored overnight in a climatically controlled chamber (37° C., 50% rel. atmospheric humidity).
The tress section was drawn four times in each case for 30 seconds through a smoothing iron (˜210° C.), which was pressed onto the tress by means of a 630 g weight. This treatment was repeated a total of five times from the wetting of the hair and shampoo treatment (in total 20 draws through the smoothing iron). […]

Assay [6] is described as follows: Repair of reductively smoothed hair: tensile elongation forces by Tensile Tester. To be noted: simple hair conditioner (Table 9); 0.5% DD/LL 1:1 or 2.0% wheat protein (25% active); FIG. 10. Here is the method:
as §1, §2, §3

In the case of `CSCC[C@H](N)C(=O)O` [L-methionine], the “improvement of Load at 15% elongation (Load 15%)” value in assay [1] was 2.73 mN. For the same compound, the “repair effect (Load 15%, Work 15%) compared with vehicle hair conditioner, in words” value in assay [2] (simple hair conditioner (Table 3), 2.0% raw material, FIGS. 3 and 4) is “could be further increased neither”.

`CSCCC(N)C(=O)NC(CCSC)C(=O)O` (racemic) [DD/LL/LD/DL-methionyl-methionine]: the “characteristic life span α: number of cycles in which 63.2% of all hair fibres tear” value in assay [3] was 33 980 cycles. In addition, the “improvement of Load at 15% elongation (Load 15%)” value in assay [2] (expanded hair conditioner (Table 4), 1.0% DD/LL/LD/DL 35:35:65:65 or 4.0% wheat protein (25% active), vehicle 1.28 mN, FIG. 5) was determined as 4.85 mN; in assay [2] (shampoo (Table 5), 1.00% DD/LL/LD/DL 35:35:65:65, contact 5 minutes, five treatments, vehicle 0.46 mN, FIG. 7), 1.33 mN; in assay [2] (simple hair conditioner (Table 3), 2.0% active, DD/LL/LD/DL = 1:1:1:1, contact 30 minutes, vehicle 2.65 mN, FIG. 3), 4.14 mN. Moreover, the “improvement of Work up to 15% elongation (Work 15%)” value was found to be 18.2 µJ in assay [2] (expanded hair conditioner (Table 4), 1.0% DD/LL/LD/DL 35:35:65:65 or 4.0% wheat protein (25% active), vehicle 3.51 μJ, FIG. 6); 2.58 µJ in assay [2] (shampoo (Table 5), 1.00% DD/LL/LD/DL 35:35:65:65, contact 5 minutes, five treatments, vehicle 2.46 μJ); 19.4 µJ in assay [2] (simple hair conditioner (Table 3), 2.0% active, DD/LL/LD/DL = 1:1:1:1, contact 30 minutes, vehicle 11.0 μJ, FIG. 4).

As for `CSCCC(N)C(=O)NC(CCSC)C(=O)O` (centres unmarked) [DD/LL-methionyl-methionine], the “number of cycles at which 20% of the hair remain intact” value in assay [4] (preventative treatment with active ingredient solution pH 5.5, DD/LL weight ratio 1:1, vehicle 5500) was 10 000 cycles. In assay [4] (preventative treatment with active ingredient solution pH 5.5, vehicle 8000), the “number of cycles at which 10% of the hair did not tear” value is given as 22 000 cycles. The “improvement of Load at 15% elongation (Load 15%)” value in assay [1] stood at 3.76 mN. Further, the “hair denaturation temperature (TD)” value in assay [5] was 139.9 °C. Besides, in assay [6], the “improvement of Load at 15% elongation (Load 15%) relative to vehicle” value came out at 0.96 mN.
